# Patent US9725446B2, “7-azaindole derivatives” (MERCK PATENT GmbH, priority 2011, dated 2017)
# pIC50: −log10 of the molar value.
# How the values were obtained:
# TGF-beta = experiment: Inhibition of TGF-beta-mediated effects (elimination of TGF-beta-mediated growth inhibition, Mv1Lu cells, Crystal Violet); type: cell-based
# Description: In-Vitro (Enzyme) Assay for Determination of the Efficacy of the Inhibitors of the Inhibition of TGF-Beta-Mediated Effects
# As an example, the ability of the inhibitors to eliminate TGF-beta-mediated growth inhibition is tested.
# Cells of the lung epithelial cell line Mv1Lu are sown in a defined cell density in a 96-well microtitre plate and cultivated overnight under standard conditions. Next day, the medium is replaced by medium which comprises 0.5% of FCS and 1 ng/ml of TGF-beta, and the test substances are added in defined concentrations, generally in the form of dilution series with 5-fold steps. The concentration of the solvent DMSO is constant at 0.5%. After a further two days, Crystal Violet staining of the cells is carried out. After extraction of the Crystal Violet from the fixed cells, the absorption is measured spectrophotometrically at 550 nm. It can be used as a quantitative measure of the adherent cells present and thus of the cell proliferation during the culture.
# HCT 116 = experiment: Tumour cell proliferation/vitality assay (Alamar Blue), HCT 116; type: cell-based; conditions: Homo sapiens; vitality assay, HCT 116 cells
# Description: (§1) In the present experiment description, the inhibition of tumour cell proliferation/tumour cell vitality by active compounds is described.
# (§2) The cells are sown in a suitable cell density in microtitre plates (96-well format) and the test substances are added in the form of a concentration series. After four further days of cultivation in serum-containing medium, the tumour cell proliferation/tumour cell vitality can be determined by means of an Alamar Blue test system.
# (§3) The cells are cultivated in medium. At intervals of several days, the cells are detached from the culture dishes with the aid of trypsin solution and sown in suitable dilution in fresh medium. The cells are cultivated at 37° Celsius and 10% CO2.
# (§4) A defined number of cells (for example 2000 cells) per culture/well in a volume of 180 μl of culture medium are sown in microtitre plates (96 well cell-culture plates) using a multichannel pipette. The cells are subsequently cultivated in a CO2 incubator (37° C. and 10% CO2).
# (§5) The test substances are dissolved, for example, in DMSO and subsequently employed in corresponding concentration (if desired in a dilution series) in the cell culture medium. The dilution steps can be adapted depending on the efficiency of the active compounds and the desired spread of the concentrations. Cell culture medium is added to the test substances in corresponding concentrations. The addition of the test substances to the cells can take place on the same day as the sowing of the cells. To this end, in each case 20 μl of substance solution from the predilution plate are added to the cultures/wells. The cells are cultivated for a further 4 days at 37° Celsius and 10% CO2.
# (§6) In each case, 20 μl of Alamar Blue reagent are added per well, and the microtitre plates are incubated, for example, for a further seven hours in a CO2 incubator (at 37° C. and 10% CO2). The plates are measured in a reader with a fluorescence filter at a wavelength of 540 nm. The plates can be shaken gently immediately before the measurement.
# (§7) The absorbance value of the medium control (no cells and test substances used) is subtracted from all other absorbance values. The controls (cells without test substance) are set equal to 100 percent, and all other absorbance values are set in relation thereto (for example in % of control): […]
# A2780 = experiment: Tumour cell proliferation/vitality assay (Alamar Blue), A2780; type: cell-based; conditions: Homo sapiens; vitality assay, A2780 cells
# Description: as §1, §2, §3, §4, §5, §6, §7
# [1] = molecular target: TANK binding kinase (TBK1) (Homo sapiens (Human), UniProt Q9UHD2); experiment: TBK1 kinase test (384-well flashplate); type: biochemical
# Sequence of TANK binding kinase (TBK1) (Q9UHD2 whole entry, species assumed): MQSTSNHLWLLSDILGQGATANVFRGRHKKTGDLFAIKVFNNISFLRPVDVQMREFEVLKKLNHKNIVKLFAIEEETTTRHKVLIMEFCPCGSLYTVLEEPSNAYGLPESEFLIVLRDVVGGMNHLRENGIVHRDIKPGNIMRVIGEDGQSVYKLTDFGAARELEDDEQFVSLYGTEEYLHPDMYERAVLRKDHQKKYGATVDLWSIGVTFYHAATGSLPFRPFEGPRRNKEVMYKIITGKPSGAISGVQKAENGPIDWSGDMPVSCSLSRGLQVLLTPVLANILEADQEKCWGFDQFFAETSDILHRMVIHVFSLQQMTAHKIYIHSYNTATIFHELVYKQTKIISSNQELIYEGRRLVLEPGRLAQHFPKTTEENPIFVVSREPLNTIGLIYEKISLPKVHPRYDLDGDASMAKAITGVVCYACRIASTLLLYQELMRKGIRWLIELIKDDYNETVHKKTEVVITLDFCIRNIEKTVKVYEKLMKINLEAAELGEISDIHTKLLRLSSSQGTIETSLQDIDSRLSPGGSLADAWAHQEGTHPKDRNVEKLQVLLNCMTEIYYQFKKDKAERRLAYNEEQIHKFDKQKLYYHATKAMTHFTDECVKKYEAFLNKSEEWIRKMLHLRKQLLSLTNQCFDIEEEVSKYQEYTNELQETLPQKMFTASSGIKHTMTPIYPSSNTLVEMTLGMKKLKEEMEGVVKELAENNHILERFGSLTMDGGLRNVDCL
# Description: (§8) The kinase assay is performed as 384-well flashplate assay.
# 0.6 nM TANK binding kinase (TBK1), 800 nM biotinylated MELK-derived peptide (biotin-Ah-Ah-[…]) and 10 μM ATP (with 0.25 μCi of ^33P-ATP/well) are incubated in a total volume of 50 μl (10 mM MOPS, 10 mM magnesium acetate, 0.1 mM EGTA, 1 mM DTT, 0.02% of Brij35, 0.1% of BSA, pH 7.5) with or without test substance at 30° C. for 120 min. The reaction is stopped using 25 μl of 200 mM EDTA solution, filtered off with suction after 30 min at room temperature, and the wells are washed 3 times with 100 μl of 0.9% NaCl solution. The non-specific proportion of the kinase reaction (blank) is determined using 100 nM staurosporine. Radioactivity is measured in the Topcount. IC50 values are calculated using RS1.
# IKKε = IKKε (Homo sapiens (Human), UniProt Q14164); experiment: IKKε kinase test (384-well flashplate); type: biochemical; conditions: read-out: IC50 [IKKepsilon]
# Sequence of IKKε (Q14164 whole entry, species assumed): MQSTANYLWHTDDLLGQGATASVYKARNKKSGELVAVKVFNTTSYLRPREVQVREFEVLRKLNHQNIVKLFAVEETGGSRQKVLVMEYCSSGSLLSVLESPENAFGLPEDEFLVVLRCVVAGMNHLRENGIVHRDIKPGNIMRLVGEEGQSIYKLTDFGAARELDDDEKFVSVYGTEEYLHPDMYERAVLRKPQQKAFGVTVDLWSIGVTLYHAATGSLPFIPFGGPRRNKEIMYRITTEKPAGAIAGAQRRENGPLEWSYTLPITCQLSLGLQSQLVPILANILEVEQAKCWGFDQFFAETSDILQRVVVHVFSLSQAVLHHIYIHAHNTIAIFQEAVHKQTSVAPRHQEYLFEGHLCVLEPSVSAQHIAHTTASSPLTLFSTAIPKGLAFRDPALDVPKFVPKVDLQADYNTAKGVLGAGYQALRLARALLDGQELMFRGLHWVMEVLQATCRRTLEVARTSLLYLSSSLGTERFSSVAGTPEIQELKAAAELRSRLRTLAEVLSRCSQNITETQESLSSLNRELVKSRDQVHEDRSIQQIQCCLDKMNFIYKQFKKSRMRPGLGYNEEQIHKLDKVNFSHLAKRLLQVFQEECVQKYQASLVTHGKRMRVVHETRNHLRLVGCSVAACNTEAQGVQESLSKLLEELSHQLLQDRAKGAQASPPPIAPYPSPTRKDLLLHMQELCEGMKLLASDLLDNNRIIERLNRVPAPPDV
# Description: as §8
# 1 nM IKKε, 800 nM biotinylated IκBα(19-42) peptide (biotin-C6-C6-[…]) and 10 μM ATP (with 0.3 μCi of ^33P-ATP/well) are incubated in a total volume of 50 μl (10 mM MOPS, 10 mM magnesium acetate, 0.1 mM EGTA, 1 mM dithiothreitol, 0.02% of Brij35, 0.1% of BSA, 0.1% of BioStab, pH 7.5) with or without test substance at 30° C. for 120 min. The reaction is stopped using 25 μl of 200 mM EDTA solution, filtered off with suction after 30 min at room temperature, and the wells are washed 3 times with 100 μl of 0.9% NaCl solution. The non-specific proportion of the kinase reaction (blank) is determined using 3 μM EMD 1126352 (BX-795). Radioactivity is measured in the Topcount. IC50 values are calculated using RS1.
# PDK1 = PDK1 (Homo sapiens (Human), UniProt O15530); experiment: Test for the inhibition of PDK1 (flashplate, 33P-ATP); type: biochemical
# Sequence of PDK1 (O15530 51-556): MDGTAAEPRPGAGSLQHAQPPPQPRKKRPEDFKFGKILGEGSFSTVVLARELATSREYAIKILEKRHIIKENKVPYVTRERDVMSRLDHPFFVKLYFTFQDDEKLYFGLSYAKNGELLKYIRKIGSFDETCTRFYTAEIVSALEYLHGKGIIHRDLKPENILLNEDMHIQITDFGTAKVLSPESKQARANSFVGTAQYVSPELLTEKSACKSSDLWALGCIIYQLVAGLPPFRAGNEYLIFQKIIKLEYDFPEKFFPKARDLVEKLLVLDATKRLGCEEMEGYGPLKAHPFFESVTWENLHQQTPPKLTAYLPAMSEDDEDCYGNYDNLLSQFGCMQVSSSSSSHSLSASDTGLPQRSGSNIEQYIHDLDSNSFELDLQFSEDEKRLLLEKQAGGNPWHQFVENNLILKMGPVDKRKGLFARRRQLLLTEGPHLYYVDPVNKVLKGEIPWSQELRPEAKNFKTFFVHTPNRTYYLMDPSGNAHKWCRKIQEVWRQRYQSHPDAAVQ
# Description: The experimental batches are carried out in a flashplate system with 384 wells/microtitration plate.
# (400 nM), 4 μM ATP (with 0.2 μCi of ^33P-ATP/well) and the test substance in 50 μl of conventional experimental solution per well are incubated at 30° C. for 60 min. The test substances are employed in corresponding concentrations (if desired in a dilution series). The control is carried out without test substance. The reaction is stopped using standard methods and washed. The activity of the kinase is measured via the incorporated radioactivity in top count. In order to determine the non-specific kinase reaction (blank value), the experimental batches are carried out in the presence of 100 nM staurosporine.
# The radioactivity (decompositions per minute) of the blank value (no use of test substance in the presence of staurosporine) is subtracted from all other radioactivity values. The controls (kinase activity without test substance) are set equal to 100 percent and all other radioactivity values (after subtracting the blank value) are expressed set in relation thereto (for example in % of the control).
Compound,pIC50 (TGF-beta),pIC50 (HCT 116),pIC50 (A2780),pIC50 [1],pIC50 (IKKε),pIC50 (PDK1)
"Cn1cc(-c2c[nH]c3ncccc23)c2ccncc21 [Compound A19, 1-methyl-3-(1H-pyrrolo[2,3-b]pyridin-3-yl)-1H-pyrrolo[2,3-c]pyridine]",5.00 to 6.00,–,–,–,–,–
"c1cnc2[nH]cc(-c3cnc4ncccn34)c2c1 [Compound A3, 3-(1H-pyrrolo[2,3-b]pyridin-3-yl)imidazo[1,2-a]pyrimidine]",–,5.00 to 6.00,5.00 to 6.00,–,–,–
"Nc1ncc(-c2c[nH]c3ncccc23)c2ccncc12 [Compound A24, 4-(1H-pyrrolo[2,3-b]pyridin-3-yl)-2,7-naphthyridin-1-ylamine]",6.00 to 9.30,5.00 to 6.00,5.00 to 6.00,5.00 to 6.00,–,–
"Cc1[nH]c2ncccc2c1-c1nccc2c(N)nccc12 [Compound A31, 5-(2-methyl-1H-pyrrolo[2,3-b]pyridin-3-yl)-2,6-naphthyridin-1-ylamine]",6.00 to 9.30,5.00 to 6.00,5.00 to 6.00,–,–,–
"Cc1[nH]c2ncccc2c1-c1nccc2cnccc12 [Compound A28, 1-(2-methyl-1H-pyrrolo[2,3-b]pyridin-3-yl)-2,6-naphthyridine]",6.00 to 9.30,–,–,–,–,–
"Nc1nccc2c(-c3c[nH]c4ncccc34)nccc12 [Compound A32, 5-(1H-pyrrolo[2,3-b]pyridin-3-yl)-2,6-naphthyridin-1-ylamine]",6.00 to 9.30,5.00 to 6.00,–,–,–,–
"c1cc(-c2c[nH]c3ncccc23)c2ccncc2c1 [Compound A7, 5-(1H-pyrrolo[2,3-b]pyridin-3-yl)isoquinoline]",6.00 to 9.30,5.00 to 6.00,5.00 to 6.00,5.00 to 6.00,5.00 to 6.00,–
"Cn1cc(-c2cnc3[nH]cc(-c4cn(S(=O)(=O)c5ccccc5)c5cnccc45)c3c2)cn1 [Compound A14, 1-benzenesulfonyl-3-[5-(1-methyl-1H-pyrazol-4-yl)-1H-pyrrolo[2,3-b]pyridin-3-yl]-1H-pyrrolo[2,3-c]pyridine]",–,–,6.00 to 8.00,6.00 to 9.30,6.00 to 9.30,5.00 to 6.00
"c1ccc2c(-c3c[nH]c4ncccc34)cnnc2c1 [Compound A4, 4-(1H-pyrrolo[2,3-b]pyridin-3-yl)cinnoline]",5.00 to 6.00,5.00 to 6.00,5.00 to 6.00,–,–,–
"Nc1nccc2c(-c3c[nH]c4ncccc34)cccc12 [Compound A11, 5-(1H-pyrrolo[2,3-b]pyridin-3-yl)isoquinolin-1-ylamine]",5.00 to 6.00,5.00 to 6.00,5.00 to 6.00,–,–,–
"Cn1cc(-c2c[nH]c3cnccc23)c2cccnc21 [Compound A29, 3-(1-methyl-1H-pyrrolo[2,3-b]pyridin-3-yl)-1H-pyrrolo[2,3-c]-pyridine]",–,5.00 to 6.00,5.00 to 6.00,–,–,–
"Cn1cc(-c2cccc3cnccc23)c2cccnc21 [Compound A17, 5-(1-methyl-1H-pyrrolo[2,3-b]pyridin-3-yl)isoquinoline]",6.00 to 9.30,–,–,–,–,–
"Cn1cc(-c2cnc3[nH]cc(-c4c[nH]c5cnccc45)c3c2)cn1 [Compound A20, 3-[5-(1-methyl-1H-pyrazol-4-yl)-1H-pyrrolo[2,3-b]pyridin-3-yl]-1H-pyrrolo[2,3-c]pyridine]",6.00 to 9.30,6.00 to 8.00,6.00 to 8.00,6.00 to 9.30,6.00 to 9.30,6.00 to 9.30
"Cc1[nH]c2ncccc2c1-c1cccc2cnccc12 [Compound A15, 5-(2-methyl-1H-pyrrolo[2,3-b]pyridin-3-yl)isoquinoline]",6.00 to 9.30,–,–,–,–,–
"c1ccc(-c2cc3nccc(-c4c[nH]c5ncccc45)c3o2)cc1 [Compound A21, 2-phenyl-7-(1H-pyrrolo[2,3-b]pyridin-3-yl)furo[3,2-b]pyridine]",–,6.00 to 8.00,6.00 to 8.00,–,–,–
"c1cnc2[nH]cc(-c3c[nH]c4cnccc34)c2c1 [Compound A18, 3-(1H-pyrrolo[2,3-b]pyridin-3-yl)-1H-pyrrolo[2,3-c]pyridine]",5.00 to 6.00,–,–,6.00 to 9.30,5.00 to 6.00,5.00 to 6.00
"Cn1cc(-c2cnc3[nH]cc(-c4cn(C)c5cnccc45)c3c2)cn1 [Compound A33, 1-methyl-3-[5-(1-methyl-1H-pyrazol-4-yl)-1H-pyrrolo[2,3-b]-pyridin-3-yl]-1H-pyrrolo[2,3-c]pyridine]",6.00 to 9.30,–,–,6.00 to 9.30,6.00 to 9.30,6.00 to 9.30
"c1cnc2[nH]cc(-c3nccc4cnccc34)c2c1 [Compound A16, 1-(1H-pyrrolo[2,3-b]pyridin-3-yl)-2,6-naphthyridine]",6.00 to 9.30,–,–,–,–,–
"Nc1cc(-c2c[nH]c3ncccc23)c2ccccc2n1 [Compound A1, 4-(1H-pyrrolo[2,3-b]pyridin-3-yl)quinolin-2-ylamine]",–,5.00 to 6.00,5.00 to 6.00,–,–,–
